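How tested: cells in 96-well plates exposed to compound for 48 hours at five concentrations. At the GI50, growth is halved.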 Calls of active or inactive are those of the source. Rule as the data show it: active = GI50 up to about 1.1 µM and inactive = higher.
Legend:
Test in all cases: NCI anticancer screen, dose series, 48 h
[1] = tested on: EKVX
[2] = tested on: HCT-116
[3] = tested on: SF-295
[4] = tested on: UO-31
[5] = tested on: 786-0
[6] = tested on: K562
[7] = tested on: OVCAR-8
[8] = tested on: SW-620
[9] = tested on: SK-MEL-28
[10] = tested on: SK-MEL-5
[11] = tested on: RXF 393
[12] = tested on: U-251
[13] = tested on: IGROV-1
[14] = tested on: T47D
[15] = tested on: LOX IMVI
[16] = tested on: COLO 205
[17] = tested on: KM12
[18] = tested on: SNB-75
[19] = tested on: MOLT-4
[20] = tested on: SF-539
[21] = tested on: MDA-MB-231
[22] = tested on: SF-268
[23] = tested on: HOP-92
[24] = tested on: SK-MEL-2
[25] = tested on: OVCAR-3
[26] = tested on: NCI/ADR-RES
[27] = tested on: SN12C
[28] = tested on: A549
[29] = tested on: OVCAR-4
[30] = tested on: SNB-19
[31] = tested on: HL-60
[32] = tested on: NCI-H226
[33] = tested on: TK-10
[34] = tested on: HT-29
[35] = tested on: Hs-578T
[36] = tested on: NCI-H522
[37] = tested on: HCT-15
[38] = tested on: MDA-MB-435
[39] = tested on: HCC 2998
[40] = tested on: SK-OV-3
[41] = tested on: Malme-3M
[42] = tested on: RPMI-8226
[43] = tested on: PC-3
[44] = tested on: ACHN
[45] = tested on: NCI-H460
[46] = tested on: DU-145
[47] = tested on: BT-549
[48] = tested on: CCRF-CEM
[49] = tested on: M14
[50] = tested on: UACC-62
[51] = tested on: HOP-62
[52] = tested on: NCI-H23
[53] = tested on: OVCAR-5
[54] = tested on: MCF7
[55] = tested on: UACC-257
[56] = tested on: SR
[57] = tested on: CAKI-1
[58] = tested on: A498

## C(=N\N=C1NCCCCN1)/c1ccc2ccccc2c1
[1]
  GI50: 46.7 µM (inactive)
[2]
  GI50: 33.7 µM (inactive)
[3]
  GI50: 21.3 µM (inactive)
[4]
  GI50: 36.8 µM (inactive)
[5]
  GI50: 23.1 µM (inactive)
[6]
  GI50: 20.9 µM (inactive)
[7]
  GI50: 43.7 µM (inactive)
[8]
  GI50: 22.7 µM (inactive)
[9]
  GI50: 21.3 µM (inactive)
[10]
  GI50: 17.4 µM (inactive)
[11]
  GI50: 22.8 µM (inactive)
[12]
  GI50: 21.3 µM (inactive)
[13]
  GI50: 40.9 µM (inactive)
[14]
  GI50: 18.4 µM (inactive)
[15]
  GI50: 15.7 µM (inactive)
[16]
  GI50: 15.9 µM (inactive)
[17]
  GI50: 26.9 µM (inactive)
[18]
  GI50: 13 µM (inactive)
[19]
  GI50: 23.5 µM (inactive)
[20]
  GI50: 20.4 µM (inactive)
[21]
  GI50: 31.4 µM (inactive)
[22]
  GI50: 45.3 µM (inactive)
[23]
  GI50: 14.4 µM (inactive)
[24]
  GI50: 21.9 µM (inactive)
[25]
  GI50: 46.8 µM (inactive)
[26]
  GI50: 98.2 µM (inactive)
[27]
  GI50: 39.9 µM (inactive)
[28]
  GI50: 50.2 µM (inactive)
[29]
  GI50: 43.1 µM (inactive)
[30]
  GI50: 61.5 µM (inactive)
[31]
  GI50: 23.3 µM (inactive)
[32]
  GI50: 24.7 µM (inactive)
[33]
  GI50: 37.9 µM (inactive)
[34]
  GI50: 22.8 µM (inactive)
[35]
  GI50: 92.9 µM (inactive)
[36]
  GI50: 26.7 µM (inactive)
[37]
  GI50: 28.1 µM
[38]
  GI50: 17.2 µM (inactive)
[39]
  GI50: 15.3 µM (inactive)
[40]
  GI50: 27.2 µM (inactive)
[41]
  GI50: 16.3 µM (inactive)
[42]
  GI50: 27.5 µM (inactive)
[43]
  GI50: 29.6 µM (inactive)
[44]
  GI50: 45.4 µM (inactive)
[45]
  GI50: 22.3 µM (inactive)
[46]
  GI50: 67.3 µM (inactive)
[47]
  GI50: 37.2 µM (inactive)
[48]
  GI50: 33.7 µM (inactive)
[49]
  GI50: 14.5 µM (inactive)
[50]
  GI50: 31 µM (inactive)
[51]
  GI50: 42.2 µM (inactive)
[52]
  GI50: 76.7 µM (inactive)
[53]
  GI50: 25.2 µM (inactive)
[54]
  GI50: 29.4 µM (inactive)
[55]
  GI50: 21.9 µM (inactive)

## NC(=O)c1c2c(n3ccccc13)C(=O)c1ccccc1C2=O
[1]
  GI50: > 100 µM (inactive)
[2]
  GI50: > 100 µM (inactive)
[3]
  GI50: 29 µM (inactive)
[4]
  GI50: > 100 µM (inactive)
[5]
  GI50: 71.8 µM (inactive)
[6]
  GI50: > 100 µM (inactive)
[7]
  GI50: > 100 µM (inactive)
[8]
  GI50: > 100 µM (inactive)
[9]
  GI50: > 100 µM (inactive)
[10]
  GI50: 16.1 µM (inactive)
[11]
  GI50: 37 µM (inactive)
[12]
  GI50: 39.6 µM (inactive)
[13]
  GI50: 42.7 µM (inactive)
[14]
  GI50: > 100 µM (inactive)
[15]
  GI50: > 100 µM (inactive)
[56]
  GI50: > 100 µM (inactive)
[16]
  GI50: 39.6 µM (inactive)
[17]
  GI50: > 100 µM (inactive)
[18]
  GI50: 37.6 µM (inactive)
[19]
  GI50: > 100 µM (inactive)
[20]
  GI50: 39.6 µM (inactive)
[21]
  GI50: 38.5 µM (inactive)
[22]
  GI50: > 100 µM (inactive)
[23]
  GI50: 31 µM (inactive)
[24]
  GI50: 32.3 µM (inactive)
[26]
  GI50: > 100 µM (inactive)
[29]
  GI50: > 100 µM (inactive)
[30]
  GI50: 74 µM (inactive)
[31]
  GI50: > 100 µM (inactive)
[32]
  GI50: 52.4 µM (inactive)
[33]
  GI50: > 100 µM (inactive)
[34]
  GI50: 32.2 µM (inactive)
[35]
  GI50: 96.6 µM (inactive)
[37]
  GI50: > 100 µM
[38]
  GI50: 20.2 µM (inactive)
[57]
  GI50: > 100 µM (inactive)
[39]
  GI50: > 100 µM (inactive)
[40]
  GI50: > 100 µM (inactive)
[42]
  GI50: > 100 µM (inactive)
[43]
  GI50: > 100 µM (inactive)
[44]
  GI50: > 100 µM (inactive)
[45]
  GI50: 19.4 µM (inactive)
[46]
  GI50: > 100 µM (inactive)
[58]
  GI50: > 100 µM (inactive)
[47]
  GI50: > 100 µM (inactive)
[48]
  GI50: > 100 µM (inactive)
[49]
  GI50: 18.1 µM (inactive)
[50]
  GI50: 68.2 µM (inactive)
[51]
  GI50: 30.2 µM (inactive)
[52]
  GI50: 11.9 µM (inactive)
[54]
  GI50: > 100 µM (inactive)
[55]
  GI50: 32.1 µM (inactive)

## O=[N+]([O-])c1ccc(-c2nc(/C=N/N3CCCCC3)cs2)o1
[1]
  GI50: > 100 µM (inactive)
[2]
  GI50: 34.1 µM (inactive)
[3]
  GI50: > 100 µM (inactive)
[4]
  GI50: > 100 µM (inactive)
[5]
  GI50: > 100 µM (inactive)
[6]
  GI50: 57.5 µM (inactive)
[7]
  GI50: 92 µM (inactive)
[8]
  GI50: > 100 µM (inactive)
[9]
  GI50: 31.6 µM (inactive)
[10]
  GI50: 18 µM (inactive)
[11]
  GI50: > 100 µM (inactive)
[12]
  GI50: > 100 µM (inactive)
[13]
  GI50: 50.8 µM (inactive)
[14]
  GI50: 90.2 µM (inactive)
[56]
  GI50: 30.9 µM (inactive)
[16]
  GI50: 30.2 µM (inactive)
[17]
  GI50: 33.9 µM (inactive)
[18]
  GI50: > 100 µM (inactive)
[19]
  GI50: 26.5 µM (inactive)
[20]
  GI50: > 100 µM (inactive)
[21]
  GI50: 48.4 µM (inactive)
[22]
  GI50: > 100 µM (inactive)
[23]
  GI50: > 100 µM (inactive)
[24]
  GI50: > 100 µM (inactive)
[25]
  GI50: 26.3 µM (inactive)
[26]
  GI50: 74.8 µM (inactive)
[27]
  GI50: 16.2 µM (inactive)
[28]
  GI50: 40 µM (inactive)
[29]
  GI50: 23.6 µM (inactive)
[30]
  GI50: > 100 µM (inactive)
[31]
  GI50: 20.1 µM (inactive)
[32]
  GI50: > 100 µM (inactive)
[33]
  GI50: > 100 µM (inactive)
[34]
  GI50: 25.9 µM (inactive)
[35]
  GI50: > 100 µM (inactive)
[36]
  GI50: 45.2 µM (inactive)
[37]
  GI50: 32.6 µM
[38]
  GI50: 27.7 µM (inactive)
[57]
  GI50: > 100 µM (inactive)
[40]
  GI50: > 100 µM (inactive)
[41]
  GI50: 22.8 µM (inactive)
[42]
  GI50: 19.1 µM (inactive)
[43]
  GI50: > 100 µM (inactive)
[44]
  GI50: > 100 µM (inactive)
[45]
  GI50: 49.2 µM (inactive)
[46]
  GI50: > 100 µM (inactive)
[47]
  GI50: 92.5 µM (inactive)
[49]
  GI50: 37.4 µM (inactive)
[50]
  GI50: 31.9 µM (inactive)
[51]
  GI50: 53 µM (inactive)
[52]
  GI50: 29.2 µM (inactive)
[53]
  GI50: > 100 µM (inactive)
[54]
  GI50: 38.6 µM (inactive)
[55]
  GI50: 19.3 µM (inactive)
